Key:
[1] = target: T1, GSTP1-1 (glutathione transferase P1-1) (Homo sapiens, UniProt P09211); test: CDNB-GSH conjugation assay in buffer A, pH […] °C (partial, max […] inhibition; K iapp […] without Triton); also intrinsic protein fluorescence quenching with and without GSH; format: biochemical
[2] = target: T1, GSTP1-1 (glutathione transferase P1-1); test: CDNB-GSH conjugation assay in buffer B (no detergent), pH […] °C; format: biochemical

T1 sequence (P09211 2-210): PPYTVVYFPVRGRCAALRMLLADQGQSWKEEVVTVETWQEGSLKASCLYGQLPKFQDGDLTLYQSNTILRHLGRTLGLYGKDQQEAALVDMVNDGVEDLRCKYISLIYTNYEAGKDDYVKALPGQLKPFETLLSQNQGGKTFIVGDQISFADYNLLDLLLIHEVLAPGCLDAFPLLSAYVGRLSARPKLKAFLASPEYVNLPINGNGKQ

Ki [1]	Ki [2]	SMILES
3900 nM	–	O=C(OCCCCCCSc1ccc([N+](=O)[O-])c2nonc12)c1ccccc1 [compound 2, 6-((7 nitrobenzo[c][1,2,5]oxadiazol-4-yl)thio)hexyl benzoate]
–	600 nM	CC(=O)OCCCCCCSc1ccc([N+](=O)[O-])c2nonc12 [compound 3, MC2752]
